Measured values from patent US20160214926A1, “DIPHENYLOXYALKYLAMINE DERIVATIVES AND ARYLOXYALKYLAMINE DERIVATIVES, PHARMACEUTICAL COMPOSITION, USE OF SAID PHARMACEUTICAL COMPOSITION FOR TREATING, PREVENTING OR INHIBITING CHRONIC PULMONARY INFLAMMATORY DISEASES AND METHOD FOR TREATING OR PREVENTING SUCH DISEASES” (FUNDACAO OSWALDO CRUZ, priority 2013, published 2016).
Like-named read-outs stand apart in the source and are kept apart here.

Experiments:
[1] = tested on: sodium current in GH3 cells; experiment: Inhibition of sodium current in GH3 cells, patch clamp; assay type: cell-based, rat
[2] = tested on: mast cells of the RBL-2H3 line; experiment: Antigen-induced degranulation of sensitized mast cells (beta-hexosaminidase release); assay type: cell-based; settings: Rattus norvegicus
Experimental: For this study, mast cells of the RBL-2H3 line were used, as previously reported (Beaven et al., 1987). […] The cells were then dissociated from the plate using trypsin, centrifuged at 1000 rpm for 5 minutes and distributed in 48-well plates at a density of 125,000 cells per well. The cells were sensitized with monoclonal DNP-specific […] (1 μg/mL) diluted in the same medium used for the cultivation and maintained in the oven for 20 hours. After this period, the cells were washed with Tyrode-gelatin and subjected to treatment with increasing concentrations of […]-209 or mexiletine for 60 minutes. Then, incubation was performed with DNP-BSA (10 ng/ml) for a further period of 60 minutes. After this period, 10 μL of supernatant were collected from each well and added to a 96-well plate. The cells were lysed with 200 μL of 0.1% Triton X-100 and 10 μL of the lysate of each plate were added to the 96-well plate. Then, 40 μL of substrate for the β-hexosaminidase enzyme were added to the samples. After 40 minutes of reaction, reaction stopping solution (0.2 M glycine) was added, generating a colorimetric response, which was measured by spectrophotometer (λ=405 nm).

rat tracheal rings = experiment: Inhibition of carbachol-induced contraction of rat tracheal rings (pretreatment)
Source text: In this study, Wistar rats of both sexes were used, weighing between 200 and 250 g, coming from the Laboratory Animal Breeding Center of Fundacdo Oswaldo Cruz. As previously described (Coelho et al., 2008), the animals were sacrificed by exposure to air atmosphere enriched with CO2, Then, the anterior cervical region was opened so that the trachea could be located and removed. It was then transferred to a Petri dish containing Krebs solution with the following composition (mM): NaCl (118), KCl (4.8), CaCl2 (2.5), MgSO4 (1.2), KH2PO4 (1.2), NaHCO3 (24), and glucose (11). The total segment was divided into fragments of about 3 to 4 rings, which were kept in another Petri dish containing Krebs solution. Each fragment was mounted vertically on a 10 ml cuvette with Krebs solution maintained at 37° C. and aerated with carbogen mixture (95% O2 and 5% CO2). The lower rod is fixed to the cuvette base and the top portion was attached to the isometric transducer for measuring the voltage variation of the fragment. The transducer was connected to a device which transforms the voltage variation in digital record. The fragments were subjected to a basal voltage of 1 g and were calibrated, so that the subsequent contractions could be expressed as a percentage of this 1 g voltage. The solutions were introduced inside the cuvettes with the aid of an automatic pipette. The end of the tip was always placed at the same height and position, without touching the muscle. The tracheal rings were initially contracted with 2.5 μM of carbachol. When the contractions reached the plateau, each segment was washed until the total relaxation of the smooth muscle. […] All results were expressed as percentage of the contraction produced by 2.5 μM of carbachol (Coelho et al., 2008).

[3] = tested on: rat tracheas pre-contracted with carbachol; experiment: Relaxation of rat trachea pre-contracted with carbachol; settings: trachea pre-contracted with carbachol 2.5 μM, mean±SEM
Experimental: To assess the potential relaxing effect of the respiratory smooth muscle, rat tracheas were obtained and maintained in an isolated organ bath, as previously described (Coelho et al., 2008). The tracheal segments were then pre-contracted with carbachol at the concentration of 2.5 μM and subjected to increasing concentrations of the tested compounds. All results were expressed as percentage of the contraction produced by carbachol (Coelho et al., 2008).

SMILES | IC50 ([1]; read-out: IC50 inhibition of sodium current) | IC50 ([2]; RBL-2H3, 1 h, RBL-2H3, DNP-BSA 10 ng/ml, 60 minutes treatment, read-out: IC50 blocking of anaphylactic mast cell degranulation) | Emax ([2]; RBL-2H3, DNP-BSA, read-out: EMAX blocking of anaphylactic mast cell degranulation) | IC50 (rat tracheal rings; Rattus norvegicus, carbachol 10 μM, pretreated 10 minutes) | Emax (rat tracheal rings; Rattus norvegicus, carbachol 10 μM, pretreated 10 minutes, mean ± SEM, read-out: EMAX maximum effect of inhibition of carbachol-induced contraction) | blocking of the muscarinic contraction (rat tracheal rings; compound 1000 μM) | maximum relaxation effect [3] | IC50 ([1]; GH3 cells, patch clamp, read-out: IC50 for blocking the sodium current)
NC1=N[C@H](O)[C@H]2[C@H]3O[C@]4(O)O[C@@H]([C@@H](O)[C@@]2(N1)[C@@H]4O)[C@]3(O)CO [tetrodotoxin] | 0.304 µM | – | – | – | – | – | – | –
Cc1cccc(C)c1OCC(C)N (centres unmarked) [Mexiletine, 2-(2-aminopropoxy)-1,3-dimethylbenzene, reference compound] | – | 382 µM | 100% | 466 µM | 87.7 ± 4.9% | about 88% | 40% | ~278 µM
